Reference: patent US20220017877A1, “BILIRUBIN OXIDASE ACTIVITY IMPROVING METHOD, AND BILIRUBIN OXIDASE PRODUCT” (OZEKI CORPORATION, priority 2018, published 2022)
Where two headings read alike, the source gives them in different places.

Target: T1, recombinant BOD (bilirubin oxidase) derived from Myrothecium verrucaria MT-1 (Albifimbria verrucaria, UniProt Q12737)
T1 construct: made in house; host or cells: Aspergillus sp
T1 sequence (Q12737 39-572): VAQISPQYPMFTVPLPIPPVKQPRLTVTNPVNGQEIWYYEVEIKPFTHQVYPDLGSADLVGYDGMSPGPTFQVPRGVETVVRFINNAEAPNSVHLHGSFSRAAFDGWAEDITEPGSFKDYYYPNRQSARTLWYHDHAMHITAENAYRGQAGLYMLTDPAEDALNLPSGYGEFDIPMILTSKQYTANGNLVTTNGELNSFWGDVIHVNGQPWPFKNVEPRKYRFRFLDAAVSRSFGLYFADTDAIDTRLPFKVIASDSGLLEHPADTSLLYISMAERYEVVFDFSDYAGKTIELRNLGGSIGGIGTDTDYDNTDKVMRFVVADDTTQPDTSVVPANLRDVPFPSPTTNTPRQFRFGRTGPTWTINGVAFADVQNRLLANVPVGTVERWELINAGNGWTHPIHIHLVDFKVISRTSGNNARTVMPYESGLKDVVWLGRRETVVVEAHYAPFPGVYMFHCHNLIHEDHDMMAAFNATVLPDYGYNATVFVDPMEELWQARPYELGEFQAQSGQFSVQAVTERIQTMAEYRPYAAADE
Assay: BOD activity after leaving the BOD solution with an activity improving agent at 5 to 50° C. in a deoxygenated atmosphere (Test Example 2)
Format: biochemical
Settings: for BOD activity increase at 5° C. compared with not lower than 10° C.: BOD containers left at 5° C.
Description: In Test Example 1, a BOD gene derived from a Myrothecium verrucaria MT-1 (GenBank accession number: D12579.1) was introduced into an Aspergillus sp., and then a recombinant BOD (hereinafter, also referred to simply as “BOD”) expressed in the Aspergillus sp. was purified by using a well-known technique and then used as the BOD. The BOD gene derived from the Myrothecium verrucaria MT-1 was codon-optimized in accordance with a gene sequence of the Aspergillus sp., and then introduced into the Aspergillus sp. Further, the BOD thus purified was dissolved in a 50 mM glycine-KOH (pH 8.5) buffer so that the concentration of the BOD became 1.0 mg/mL. Then, a resultant solution was used as a BOD enzyme solution.
The enzymatic activity of the BOD was measured as follows. To 1780 μL of a 50 mM potassium phosphate buffer (pH 6.5), 200 μL of a 20 mM ABTS substrate solution was added, so that a mixed solution (1980 μL) was prepared. This mixed solution was incubated for 1 min at 37° C. Thereafter, 20 μL of a solution containing the BOD (specifically, a BOD solution for evaluation, which will be described later) was added to the mixed solution, and a resultant mixed solution (2 mL) was incubated at 37° C. While the mixed solution was incubated, the absorbance of the mixed solution at a wavelength of 436 nm was measured immediately after that addition of the BOD solution for evaluation (at 0 seconds) and thereafter every 20 seconds. On the basis of (i) the absorbance of the mixed solution at a wavelength of 436 nm immediately after the addition of the BOD solution for evaluation and (ii) the absorbance of the mixed solution at a wavelength of 436 nm after a lapse of 1 minute from the addition of the BOD solution for evaluation, calculation was carried out for obtaining an increase rate per minute of the absorbance of the mixed solution at a wavelength of 436 nm after the addition of the BOD solution for evaluation. The BOD activity (unit) in the BOD solution for evaluation was calculated from the increase rate. In the present specification, the amount of enzyme for oxidizing 1 μmol of ABTS per minute was defined as one unit.
The following describes a specific test method in Test Example 2. A BOD solution containing an activity improving agent was prepared as in Test Example 1. Further, another BOD solution which contained no activity improving agent (to which no activity improving agent was added) was prepared and used as a control. In Test Example 2, L-ascorbic acid or uric acid was used as the activity improving agent. Moreover, the final concentration of L-ascorbic acid in the BOD solution was set to 4 mM, and the final concentration of uric acid in the BOD solution was set to 20 mM. In addition, in Test Example 2, the concentration of the BOD in the BOD enzyme solution was set to 3.0 mg/mL.
Each of the above BOD solutions and a deoxygenating agent (Anaero Pack-Kenki manufactured by Mitsubishi Gas Chemical Company, Inc.) were included in one container (pouch) which was not permeable to oxygen. Then, the container was sealed, so that a BOD container was prepared. The BOD container was left at room temperature (approximately 25° C.) for approximately 2 hours, so that an inner atmosphere of the container became the deoxygenated atmosphere. Thereafter, the BOD container was left in a thermostatic chamber set at 5° C., 10° C., 20° C., 30° C., 40° C., or 50° C. for a certain period of time. Here, (a) the BOD solution without any additive was left for 1 day, 3 days, 7 days, 14 days, or 29 days, (b) the BOD solution containing L-ascorbic acid was left for 1 day, 3 days, 7 days, or 14 days, and (c) the BOD solution containing uric acid was left for 1 day, 3 days, 8 days, 14 days, or 28 days. Three samples (BOD containers) were prepared for each condition. After leaving the BOD containers under the above conditions, the BOD solution was collected from each of the BOD containers and used as a BOD solution for evaluation. […]

O=c1[nH]c(=O)c2[nH]c(=O)[nH]c2[nH]1 [Uric acid, uric acid]
activity at 20000 µM (20 mM, 5° C., Day 0, read-out: Activity (%) Day 0): 100%
activity at 20000 µM (20 mM, 5° C., Day 1, read-out: Activity (%) Day 1): 116%
activity at 20000 µM (20 mM, 5° C., Day 3, read-out: Activity (%) Day 3): 113%
activity at 20000 µM (20 mM, 5° C., Day 8, read-out: Activity (%) Day 8): 140%
activity at 20000 µM (20 mM, 5° C., Day 14, read-out: Activity (%) Day 14): 137%
activity at 20000 µM (20 mM, 5° C., Day 28, read-out: Activity (%) Day 28): 144%
activity at 20000 µM (20 mM, 10° C., Day 0, read-out: Activity (%) Day 0): 100%
activity at 20000 µM (20 mM, 10° C., Day 1, read-out: Activity (%) Day 1): 123%
activity at 20000 µM (20 mM, 10° C., Day 3, read-out: Activity (%) Day 3): 123%
activity at 20000 µM (20 mM, 10° C., Day 8, read-out: Activity (%) Day 8): 159%
activity at 20000 µM (20 mM, 10° C., Day 14, read-out: Activity (%) Day 14): 144%
activity at 20000 µM (20 mM, 10° C., Day 28, read-out: Activity (%) Day 28): 169%
activity at 20000 µM (20 mM, 20° C., Day 0, read-out: Activity (%) Day 0): 100%
activity at 20000 µM (20 mM, 20° C., Day 1, read-out: Activity (%) Day 1): 134%
activity at 20000 µM (20 mM, 20° C., Day 3, read-out: Activity (%) Day 3): 137%
activity at 20000 µM (20 mM, 20° C., Day 8, read-out: Activity (%) Day 8): 179%
activity at 20000 µM (20 mM, 20° C., Day 14, read-out: Activity (%) Day 14): 173%
activity at 20000 µM (20 mM, 20° C., Day 28, read-out: Activity (%) Day 28): 206%
activity at 20000 µM (20 mM, 30° C., Day 0, read-out: Activity (%) Day 0): 100%
activity at 20000 µM (20 mM, 30° C., Day 1, read-out: Activity (%) Day 1): 144%
activity at 20000 µM (20 mM, 30° C., Day 3, read-out: Activity (%) Day 3): 181%
activity at 20000 µM (20 mM, 30° C., Day 8, read-out: Activity (%) Day 8): 202%
activity at 20000 µM (20 mM, 30° C., Day 14, read-out: Activity (%) Day 14): 212%
activity at 20000 µM (20 mM, 30° C., Day 28, read-out: Activity (%) Day 28): 215%
activity at 20000 µM (20 mM, 40° C., Day 0, read-out: Activity (%) Day 0): 100%
activity at 20000 µM (20 mM, 40° C., Day 1, read-out: Activity (%) Day 1): 176%
activity at 20000 µM (20 mM, 40° C., Day 3, read-out: Activity (%) Day 3): 206%
activity at 20000 µM (20 mM, 40° C., Day 8, read-out: Activity (%) Day 8): 216%
activity at 20000 µM (20 mM, 40° C., Day 14, read-out: Activity (%) Day 14): 194%
activity at 20000 µM (20 mM, 40° C., Day 28, read-out: Activity (%) Day 28): 217%
activity at 20000 µM (20 mM, 50° C., Day 0, read-out: Activity (%) Day 0): 100%
activity at 20000 µM (20 mM, 50° C., Day 1, read-out: Activity (%) Day 1): 210%
activity at 20000 µM (20 mM, 50° C., Day 3, read-out: Activity (%) Day 3): 196%
activity at 20000 µM (20 mM, 50° C., Day 8, read-out: Activity (%) Day 8): 175%
activity at 20000 µM (20 mM, 50° C., Day 14, read-out: Activity (%) Day 14): 195%
activity at 20000 µM (20 mM, 50° C., Day 28, read-out: Activity (%) Day 28): 174%
increase of BOD activity as compared with that prior to leaving (20 mM, eight days at 20° C.): approximately 1.8 times
increase of BOD activity as compared with that prior to leaving (20 mM, three days at 30° C.): approximately 1.8 times
BOD activity increase at 5° C. compared with not lower than 10° C.: not found to be increased to an extend that was achieved

O=C1O[C@H]([C@@H](O)CO)C(O)=C1O [L-ascorbic acid]
activity at 4000 µM (4 mM, 5° C., Day 0, read-out: Activity (%) Day 0): 100%
activity at 4000 µM (4 mM, 5° C., Day 1, read-out: Activity (%) Day 1): 92%
activity at 4000 µM (4 mM, 5° C., Day 3, read-out: Activity (%) Day 3): 95%
activity at 4000 µM (4 mM, 5° C., Day 7, read-out: Activity (%) Day 7): 107%
activity at 4000 µM (4 mM, 5° C., Day 14, read-out: Activity (%) Day 14): 55%
activity at 4000 µM (4 mM, 10° C., Day 0, read-out: Activity (%) Day 0): 100%
activity at 4000 µM (4 mM, 10° C., Day 1, read-out: Activity (%) Day 1): 101%
activity at 4000 µM (4 mM, 10° C., Day 3, read-out: Activity (%) Day 3): 120%
activity at 4000 µM (4 mM, 10° C., Day 7, read-out: Activity (%) Day 7): 146%
activity at 4000 µM (4 mM, 10° C., Day 14, read-out: Activity (%) Day 14): 147%
activity at 4000 µM (4 mM, 20° C., Day 0, read-out: Activity (%) Day 0): 100%
activity at 4000 µM (4 mM, 20° C., Day 1, read-out: Activity (%) Day 1): 115%
activity at 4000 µM (4 mM, 20° C., Day 3, read-out: Activity (%) Day 3): 160%
activity at 4000 µM (4 mM, 20° C., Day 7, read-out: Activity (%) Day 7): 195%
activity at 4000 µM (4 mM, 20° C., Day 14, read-out: Activity (%) Day 14): 188%
activity at 4000 µM (4 mM, 30° C., Day 0, read-out: Activity (%) Day 0): 100%
activity at 4000 µM (4 mM, 30° C., Day 1, read-out: Activity (%) Day 1): 164%
activity at 4000 µM (4 mM, 30° C., Day 3, read-out: Activity (%) Day 3): 205%
activity at 4000 µM (4 mM, 30° C., Day 7, read-out: Activity (%) Day 7): 204%
activity at 4000 µM (4 mM, 30° C., Day 14, read-out: Activity (%) Day 14): 229%
activity at 4000 µM (4 mM, 40° C., Day 0, read-out: Activity (%) Day 0): 100%
activity at 4000 µM (4 mM, 40° C., Day 1, read-out: Activity (%) Day 1): 212%
activity at 4000 µM (4 mM, 40° C., Day 3, read-out: Activity (%) Day 3): 216%
activity at 4000 µM (4 mM, 40° C., Day 7, read-out: Activity (%) Day 7): 215%
activity at 4000 µM (4 mM, 40° C., Day 14, read-out: Activity (%) Day 14): 237%
activity at 4000 µM (4 mM, 50° C., Day 0, read-out: Activity (%) Day 0): 100%
activity at 4000 µM (4 mM, 50° C., Day 1, read-out: Activity (%) Day 1): 220%
activity at 4000 µM (4 mM, 50° C., Day 3, read-out: Activity (%) Day 3): 211%
activity at 4000 µM (4 mM, 50° C., Day 7, read-out: Activity (%) Day 7): 212%
activity at 4000 µM (4 mM, 50° C., Day 14, read-out: Activity (%) Day 14): 238%
increase of BOD activity as compared with that prior to leaving (4 mM, one day at not lower than 40° C.): ≥ 2 times
increase of BOD activity as compared with that prior to leaving (4 mM, seven days at 20° C.): ≥ 2 times
increase of BOD activity as compared with that prior to leaving (4 mM, three days at 30° C.): ≥ 2 times
BOD activity increase at 5° C. compared with not lower than 10° C.: not found to be increased to an extend that was achieved
